This experiment has as its system human motor neurons. Put plainly: Pharmacological effect (axonal amount, Tuj1) of antibody-MMAE conjugate. The format is cell-based. Particulars: t-test, significance level p<0.05. The method, then: Experiments were performed using human motor neurons, for which synaptogenesis was induced using microbeads coated with the extracellular domain of LRRTM2. Culture of cells, preparation of LRRTM2 beads and induction of presynapse were performed as described in Example 1.
As the drug, a microtubule polymerization inhibitor monomethylauristatin E (MMAE: Cat. No. #HY-15575; MedChemExpress) was used. As the anti-SYT2 N-terminal antibody and the normal rabbit antibody for control, antibodies used in Example 1 were used. Conjugate of MMAE and the antibody was prepared using MagicLink™ kit (broadpharm). Preparation of conjugate was performed according to the manufacturer's protocols.
After warming the neuronal medium at 37° C. for 30 minutes, 4-aminopyridine (Sigma Aldrich) was added to the medium to have a final concentration of 100 μM and mixed. In addition, conjugate was added to have a final concentration of 1 μg/mL and mixed. […]
The axonal amount was obtained as the sum of the brightness (=(fluorescence intensity per pixel)×(pixel number)) of Tuj1 signals in the obtained fluorescence images. The relative amount of axon was calculated as the value normalized by the results obtained using the conjugate of the control normal rabbit antibody and MMAE set to 100%. […]

Non-standard residues stand in square brackets, D forms with d. Residues, ends and D or L forms follow the SMILES beside them. *: point of attachment. Dolaproine = CO[C@@H]([C@@H]1CCCN1)[C@@H](C)C(=O)O; Dil = CC[C@H](C)[C@H](NC)[C@@H](CC(=O)O)OC; X1 = C[C@@H](N*)[C@@H](O)c1ccccc1; NMeV = CN[C@H](C(=O)O)C(C)C

For `CC[C@H](C)[C@@H]([C@@H](CC(=O)N1CCC[C@H]1[C@H](OC)[C@@H](C)C(=O)N[C@H](C)[C@@H](O)c1ccccc1)OC)N(C)C(=O)[C@@H](NC(=O)[C@@H](NC)C(C)C)C(C)C` [MMAE, monomethyl auristatin E] (H-[NMeV]V[Dil][Dolaproine]-X1), the “axonal amount, difference from the control antibody group” value was “no significant differences”.

For the origin of these results see US20250277028A1, “TARGETING AGENT” (JIKSAK BIOENGINEERING, INC., priority 2022, published 2025).
